Test results taken from patent US10350204B2, “Methods for treating cognitive deficits associated with fragile X syndrome” (Wisconsin Alumni Research Foundation, priority 2015, dated 2019).

Experiments:
Format in all cases: cell-based, mouse
[1] = tested on: Fmr1 KO and wildtype NPCs; assay: BrdU proliferation assay of cultured NPCs
Description: We used only early passage cells (between passage 4 and 10) and only the same passage numbers of wild type (WT) and Fmr1 KO cells. For each experiment, triplicate wells of cells were analyzed, and results were averaged as one data point (n=1). At least 3 independent experiments (n=3) were performed and used for statistical analyses for each analysis. To study cell proliferation, we dissociated neural stem cells with trypsin and plated them on poly-L-ornithine and laminin-coated 24 well plate (Scientific fisher, 87721) at a density of 100,000 cells per well in proliferation medium. At 20 h post-plating, 5 μM 5-bromo-2.′-deoxyuridine (BrdU, Sigma-Aldrich) was added into the culture medium for 6 h. NPCs were then washed with PBS and fixed with 4% paraformaldehyde for 30 min at room temperature, followed by immunohistochemical analysis. To detect BrdU incorporation, fixed cells were pretreated with 1M HCl for 30 min at 37° C., and then washed with borate buffer, pH 8.5, for 30 min. We then followed our standard immunohistochemistry protocol^10. BrdU incorporation assay was determined using an Operetta high content imaging system (PerkinElmer, Inc) and Harmony quantification software (PerkinElmer, Inc). The percentage of proliferating cells was defined as the number of BrdU-labeled cells divided by total DAPI-positive cells.
For proliferation assay in vitro, 1 μM MK2206 (Selleckchem, S1078) (AKT phosphorylation inhibitor), or 2 μM Nutlin-3 (Nt3, Selleckchem, 51061) (Mdm2 inhibitor), or 1 μM RG7112 (Selleckchem, S7030) (Mdm2 inhibitor) or YH239-EE (Selleckchem 57489) (4 μM) (Mdm2 inhibitor) was added to proliferating NPCs at 6 hours post-plating. Cells were then pulse labeled 18 hours later with 5 μM 5-bromo-2′-deoxyuridine (BrdU, Sigma-Aldrich, B5002) and incubated for 6 hours in the presence of inhibitor, followed by fixation, staining, and quantification.

[2] = tested on: Fmr1 KO and wildtype NPCs; assay: Differentiation assay of cultured NPCs (Tuj1 neurons, GFAP astrocytes); conditions: 4 days
Description: Proliferation and differentiation of aNPCs were analyzed using our published methods (Guo et al., Nature Med. (2011); Guo et al., Neuron 70, 924-938 (2011); Luo et al., PLoS Genet 6 (2010); Liu et al., Cell Stem Cell 6 (2010)). We used only early passage cells (between passage 4 and 10) and only the same passage numbers of wild type (WT) and Fmr1 KO cells. For each experiment, triplicate wells of cells were analyzed, and results were averaged as one data point (n=1). At least 3 independent experiments (n=3) were performed and used for statistical analyses for each analysis. […] For the differentiation assay, at 24 h post-plating, cells were changed into differentiation medium, Neurobasal A, containing 5 μM forskolin (Sigma-Aldrich, F-6886) and 1 μM retinoic acid (Sigma-Aldrich, R-2625) for 4 d, followed by fixation with 4% paraformaldehyde for 30 min, and then washed with Dulbecco's Phosphate Buffered Saline (DPBS), pH 7.4 for 30 min. Immunocytochemistry staining was carried out as described (Guo et al., Nature Med. (2011); Guo et al., Neuron 70, 924-938 (2011); Luo et al., PLoS Genet 6 (2010); Liu et al., Cell Stem Cell 6 (2010)). Briefly, cells were preblocked using DPBS containing 5% normal goat serum (VECTOR, S-1000) and 0.1% Triton X-100 for 30 min, followed by overnight incubation with primary antibodies: mouse anti-Tuj1 (1:1000, Promega, G712A) and rabbit anti-S100β (1:1000, Dako, Z0334).
After washing with Dulbecco s Phosphate Buffered Saline (DPBS), cells were incubated with secondary antibodies that included goat anti-mouse 568 (1:1000, Invitrogen, A11031), goat anti-rabbit 488 (1:1000, Invitrogen, A11008) followed by counterstaining with the fluorescent nuclear dye 4′,6-diamidino-2′-phenylindole dihydrochloride (DAPI, Sigma-Aldrich, B2261). […] (VECTOR, H-1000), the numbers of Tuj1, GFAP-positive cells were quantified using an Olympus BX51 microscope equipped with a MicroFire digital camera (Optronics) and a motorized stage using a 20× objective lens. The quantification was carried out using an unbiased stereology method with assistance from StereoInvestigator software (MBF Biosciences). The percentage of differentiated cells was calculated as the number of Tuj1- or GFAP-labeled cells divided by the total number of cells stained with DAPI.

[3] = tested on: Fmr1 KO and wildtype NPCs; assay: Western blot analyses of p-AKT, p-MDM2, MDM2 and P53 in NPCs; conditions: total AKT as loading control
[4] = tested on: Fmr1 KO and wildtype NPCs; assay: as above
Description: NPCs were isolated from the dentate gyms of 8 to 10-week-old male Fmr1 KO mice and wild-type (wildtype) littermate controls based on our published methods (12, 64). Independently isolated cells serve as biological replicates. Proliferation and differentiation of NPCs was analyzed as described (11, 12, 61). We used only early passage cells (between passage 4 and 10) and only the same passage numbers of wildtype and Fmr1 KO cells. For each experiment, triplicate wells of cells were analyzed, and results were averaged as one data point (n=1). At least 3 independent biological replicates were used (n=3) for statistical analyses.
Protein samples were separated on SDS-PAGE gels (Bio-Rad), transferred to PVDF membranes (Millipore), and incubated with primary antibodies. After incubation with fluorescence-labeled secondary antibodies (Li—CoR), the membranes were imaged using Li—CoR and quantification was performed using ImageJ software. At least n=3 independent blots were used for statistical analysis.
For loading controls, membranes were probed with the mouse antibody against GAPDH.

[5] = Fmr1 KO NPCs, 1 μM MK2206, 2 μM Nutlin-3, 1 μM RG7112, 4 μM YH239-EE
[6] = Fmr1 KO NPCs, 1 μM MK2206, 2 μM Nutlin-3, 1 μM RG7112
[7] = wildtype NPCs, 1 μM MK2206, 2 μM Nutlin-3

| Compound | cell proliferation (BrdU+ cells) [1, 5] | astroglial differentiation (GFAP+) [2, 6] | neuronal differentiation (Tuj1+) [2, 6] | p-AKT ([3]; Fmr1 KO NPCs) | p-AKT ([3]; wildtype NPCs) | cell proliferation (BrdU+ cells) [1, 7] | P53 expression ([4]; Fmr1 KO NPCs) | p-MDM2 (Ser166) ([4]; Fmr1 KO NPCs) | total MDM2 ([4]; Fmr1 KO NPCs) | p-MDM2 (Ser166) ([4]; wildtype NPCs) | total MDM2 ([4]; wildtype NPCs) | astroglial differentiation (GFAP+) [2, 7] | neuronal differentiation (Tuj1+) [2, 7] |
| --- | --- | --- | --- | --- | --- | --- | --- | --- | --- | --- | --- | --- | --- |
| CCOC(=O)c1[nH]c2cc(Cl)ccc2c1C(C(=O)NC(C)(C)C)N(C=O)Cc1ccc(Cl)cc1 (centres unmarked) [YH239-EE] | rescued the cell proliferation phenotype | – | – | – | – | – | – | – | – | – | – | – | – |
| CCOc1cc(C(C)(C)C)ccc1C1=N[C@@](C)(c2ccc(Cl)cc2)[C@@](C)(c2ccc(Cl)cc2)N1C(=O)N1CCN(CCCS(C)(=O)=O)CC1 [RG7112] | rescued the cell proliferation phenotype | rescued astroglial differentiation phenotypes | rescued neuronal differentiation phenotypes | – | – | – | – | – | – | – | – | – | – |
| NC1(c2ccc(-c3nc4ccn5c(=O)[nH]nc5c4cc3-c3ccccc3)cc2)CCC1 [MK-2206] | decreased cell proliferation | decreased | increased neuronal differentiation | reduced p-AKT | reduced p-AKT | decreased cell proliferation | enhanced P53 expression | reduced p-MDM2 | without affecting total MDM2 | reduced p-MDM2 | without affecting total MDM2 | decreased | increased neuronal differentiation |
